The text below walks through data of patent US8586579B2, “Anellated pyridine compounds” (Hoffmann-La Roche Inc., priority 2010, dated 2013).

Where two headings read alike, the source gives them in different places.

The target of series [1] is human D2 receptor (Homo sapiens (Human), UniProt P14416). The experiment in a line: Radioligand binding assay, [3H]-spiperone, human D2 receptor. The note with it: membranes of HEK293 EBNA cells expressing human D2; 0.7 nM [3H]-spiperone. The method in brief: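 Membranes from HEK293 EBNA cells transiently expressing human D2 were incubated 1 h at RT with ~0.7 nM [3H]-spiperone and ten compound concentrations (10 μM–0.1 nM) in Tris buffer with NaCl, MgCl2, KCl, CaCl2, EDTA, pH 7.4.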
human D2 receptor, sequence (P14416 whole entry): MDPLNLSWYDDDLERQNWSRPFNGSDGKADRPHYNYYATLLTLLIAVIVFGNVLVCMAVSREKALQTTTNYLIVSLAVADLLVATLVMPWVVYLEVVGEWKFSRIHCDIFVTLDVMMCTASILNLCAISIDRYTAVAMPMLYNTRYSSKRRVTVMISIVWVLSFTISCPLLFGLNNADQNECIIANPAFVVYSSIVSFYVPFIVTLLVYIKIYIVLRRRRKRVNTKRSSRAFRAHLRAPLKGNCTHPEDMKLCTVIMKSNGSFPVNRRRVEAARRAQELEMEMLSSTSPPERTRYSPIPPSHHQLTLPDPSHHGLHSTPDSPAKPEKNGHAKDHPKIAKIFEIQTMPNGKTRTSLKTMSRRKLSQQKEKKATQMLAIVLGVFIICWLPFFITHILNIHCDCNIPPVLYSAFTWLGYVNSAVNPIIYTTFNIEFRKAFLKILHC

The target in series [2] is human D3 receptor (Homo sapiens (Human), UniProt P35462). The experiment in a line: Radioligand binding assay, [3H]-spiperone, human D3 receptor. The conditions noted are these: membranes of HEK293 EBNA cells expressing human D3; 0.5 nM [3H]-spiperone. The method in brief:
(§1)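 Membranes from transiently transfected HEK293 EBNA cells were incubated 1 h at RT with ten compound concentrations (10 μM-0.1 nM) and radioligand: 0.5 nM [3H]-spiperone for D3 (Tris/NaCl/Mg/Ca buffer, pH 7.4) or 1.1 nM [3H]-ketanserin for 5-HT2A (Tris/MgCl2/EGTA, pH 7.4).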

Series [3] concerns the target human 5-HT2A receptor (Homo sapiens (Human), UniProt P28223). The experiment in a line: Radioligand binding assay, [3H]-ketanserin, human 5-HT2A receptor. The method in brief: as §1
Setting [4] is: membranes of HEK293 EBNA cells expressing human 5-HT2A, 1.1 nM [3H]-ketanserin.

human 5-HT2A receptor, sequence (P28223 whole entry): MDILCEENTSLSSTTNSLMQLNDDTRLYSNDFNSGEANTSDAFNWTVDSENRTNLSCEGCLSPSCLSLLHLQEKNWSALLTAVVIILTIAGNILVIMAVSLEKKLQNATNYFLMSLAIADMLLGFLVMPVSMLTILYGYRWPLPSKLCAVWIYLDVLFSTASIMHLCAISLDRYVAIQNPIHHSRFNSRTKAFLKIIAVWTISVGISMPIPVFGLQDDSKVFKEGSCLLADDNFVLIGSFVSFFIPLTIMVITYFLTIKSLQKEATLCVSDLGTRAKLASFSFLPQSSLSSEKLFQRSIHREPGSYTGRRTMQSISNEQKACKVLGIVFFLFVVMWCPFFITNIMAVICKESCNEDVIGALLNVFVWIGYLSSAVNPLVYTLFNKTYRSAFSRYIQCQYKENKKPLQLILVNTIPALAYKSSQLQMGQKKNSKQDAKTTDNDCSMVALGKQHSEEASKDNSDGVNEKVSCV
human D3 receptor, sequence (P35462 whole entry): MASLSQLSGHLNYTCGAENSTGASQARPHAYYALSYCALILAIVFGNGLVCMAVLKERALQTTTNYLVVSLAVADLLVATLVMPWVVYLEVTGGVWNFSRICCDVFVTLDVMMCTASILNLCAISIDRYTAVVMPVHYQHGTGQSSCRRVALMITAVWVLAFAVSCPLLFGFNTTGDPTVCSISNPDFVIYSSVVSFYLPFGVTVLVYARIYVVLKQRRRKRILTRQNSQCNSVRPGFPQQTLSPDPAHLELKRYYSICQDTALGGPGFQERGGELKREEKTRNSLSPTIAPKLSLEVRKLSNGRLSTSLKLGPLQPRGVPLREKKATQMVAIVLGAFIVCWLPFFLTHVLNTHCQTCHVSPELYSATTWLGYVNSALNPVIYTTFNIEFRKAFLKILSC

Regarding `CC(C)(C)CC(=O)N[C@H]1CC[C@H](CCN2CCN(c3nccc4c3CCO4)CC2)CC1` [Example 72, trans-N-(4-{2-[4-(2,3-Dihydro-furo[3,2-c]pyridin-4-yl)-piperazin-1-yl]-ethyl}-cyclohexyl)-3,3-dimethyl-butyramide], the melting point worked out at 192.5 °C. For the same compound, in series [1], the Ki worked out at 444 nM. The Ki in series [2] came to 17 nM. For the same compound, the Ki in series [3] (setting [4]) was determined as 16.2 nM.
For `O=C(N[C@H]1CC[C@H](CCN2CCN(c3nccc4c3CCO4)CC2)CC1)c1ccc(N2CCOCC2)cc1` [Example 57, trans-N-(4-{2-[4-(2,3-Dihydro-furo[3,2-c]pyridin-4-yl)-piperazin-1-yl]-ethyl}-cyclohexyl)-4-morpholin-4-yl-benzamide], in that order: 228.5 °C, 867 nM, 16.9 nM and 4.52 nM.
For `CC(=O)N[C@H]1CC[C@H](CCN2CCN(c3nccc4c3CCO4)CC2)CC1` [Example 32, trans-N-(4-{2-[4-(2,3-Dihydro-furo[3,2-c]pyridin-4-yl)-piperazin-1-yl]-ethyl}-cyclohexyl)-acetamide] the same measures were 260 °C, 770 nM, 12.7 nM and 22.9 nM.
For `O=C(CC1C[C@H](O)CO1)N[C@H]1CC[C@H](CCN2CCN(c3nccc4c3CCO4)CC2)CC1` (stereo in doubt) [Example 91, trans-N-(4-{2-[4-(2,3-Dihydro-furo[3,2-c]pyridin-4-yl)-piperazin-1-yl]-ethyl}-cyclohexyl)-2-((S)-4-hydroxy-tetrahydro-furan-2-yl)-acetamide], in that order: 155 °C, 926 nM, 14.2 nM and 22.5 nM.
The compound `Cc1cc2c(c(N3CCN(CC[C@H]4CC[C@H](NC(=O)C5CCOCC5)CC4)CC3)n1)CCO2` [Example 101, Tetrahydro-pyran-4-carboxylic acid trans-(4-{2-[4-(6-methyl-2,3-dihydro-furo[3,2-c]pyridin-4-yl)-piperazin-1-yl]-ethyl}-cyclohexyl)-amide] gave a melting point of 234.5 °C. The Ki in series [1] is 1950 nM. Also, the Ki in series [2] came to 34.6 nM. Further, the Ki in series [3] (setting [4]) is 58.5 nM.
For `O=S(=O)(N[C@H]1CC[C@H](CCN2CCN(c3nccc4c3CCO4)CC2)CC1)c1ccccc1` [Example 138, trans-N-(4-{2-[4-(2,3-Dihydro-furo[3,2-c]pyridin-4-yl)-piperazin-1-yl]-ethyl}-cyclohexyl)-benzenesulfonamide], in that order: 168.5 °C, 243 nM, 15.5 nM and 70.5 nM.
For `O=S(=O)(N[C@H]1CC[C@H](CCN2CCN(c3nccc4c3CCO4)CC2)CC1)c1ccc(F)cc1` [Example 50, trans-N-(4-{2-[4-(2,3-Dihydro-furo[3,2-c]pyridin-4-yl)-piperazin-1-yl]-ethyl}-cyclohexyl)-4-fluoro-benzenesulfonamide], in that order: 221 °C, 240 nM, 6.72 nM and 39.4 nM.
The compound `Cc1cc(CC(=O)N[C@H]2CC[C@H](CCN3CCN(c4nccc5c4CCO5)CC3)CC2)on1` [Example 84, trans-N-(4-{2-[4-(2,3-Dihydro-furo[3,2-c]pyridin-4-yl)-piperazin-1-yl]-ethyl}-cyclohexyl)-2-(3-methyl-isoxazol-5-yl)-acetamide] showed a melting point of 172.5 °C. Moreover, the Ki in series [1] was 1300 nM. For the same compound, in series [2], the Ki is 4.01 nM. Also, the Ki in series [3] (setting [4]) came out at 15.2 nM.
`Cc1cnc(N2CCN(CC[C@H]3CC[C@H](NC(=O)C4CCOCC4)CC3)CC2)c2c1OCC2` [Example 109, Tetrahydro-pyran-4-carboxylic acid trans-(4-{2-[4-(7-methyl-2,3-dihydro-furo[3,2-c]pyridin-4-yl)-piperazin-1-yl]-ethyl}-cyclohexyl)-amide] gave a melting point of 223.5 °C. Also, the Ki in series [1] was 4510 nM. Moreover, in series [2], the Ki came out at 98.7 nM. Besides, the Ki in series [3] (setting [4]) turned out to be 19.7 nM.
The compound `O=C(N[C@H]1CC[C@H](CCN2CCN(c3nccc4c3CCO4)CC2)CC1)c1ccc(N2CCOCC2)nc1` [Example 119, trans-N-(4-{2-[4-(2,3-Dihydro-furo[3,2-c]pyridin-4-yl)-piperazin-1-yl]-ethyl}-cyclohexyl)-6-morpholin-4-yl-nicotinamide] gave a melting point of 222 °C. In addition, the inhibition constant (Ki) in series [1] came out at 998 nM. For the same compound, the Ki in series [2] was 44.7 nM. Further, the Ki in series [3] was 15.6 nM.
Consider `O=C(CO)N[C@H]1CC[C@H](CCN2CCN(c3nccc4c3CCO4)CC2)CC1` [Example 40, trans-N-(4-{2-[4-(2,3-Dihydrofuro[3,2-c]pyridin-4-yl)-piperazin-1-yl]-ethyl}-cyclohexyl)-hydroxyacetamide], for which the melting point stood at 237 °C. The Ki in series [1] is 1570 nM. Moreover, the Ki in series [2] worked out at 15.9 nM. Besides, the Ki in series [3] (setting [4]) stood at 12.2 nM.
For `Cc1cnc(N2CCN(CC[C@H]3CC[C@H](NC(=O)CC4CCOCC4)CC3)CC2)c2c1OCC2` [Example 110, trans-N-(4-{2-[4-(7-Methyl-2,3-dihydro-furo[3,2-c]pyridin-4-yl)-piperazin-1-yl]-ethyl}-cyclohexyl)-2-(tetrahydro-pyran-4-yl)-acetamide], in that order: 199 °C, 2950 nM, 69.4 nM and 44 nM.
The compound `O=C(C[C@@H](O)C(F)(F)F)N[C@H]1CC[C@H](CCN2CCN(c3nccc4c3CCO4)CC2)CC1` [Example 88, trans-(R)—N-(4-{2-[4-(2,3-Dihydro-furo[3,2-c]pyridin-4-yl)-piperazin-1-yl]-ethyl}-cyclohexyl)-4,4,4-trifluoro-3-hydroxy-butyramide] came in with a melting point of 207 °C. Also, the Ki in series [1] stood at 732 nM. Further, in series [2], the Ki was 19.7 nM. For the same compound, in series [3], the Ki was determined as 33.1 nM.
Regarding `O=C(N[C@H]1CC[C@H](CCN2CCN(c3nccc4c3CCO4)CC2)CC1)c1ccc(-c2ccccc2)cc1` [Example 134, Biphenyl-4-carboxylic acid trans-(4-{2-[4-(2,3-dihydro-furo[3,2-c]pyridin-4-yl)-piperazin-1-yl]-ethyl}-cyclohexyl)-amide], the melting point is 232 °C. Besides, the Ki in series [1] is 1130 nM. For the same compound, the Ki in series [2] came to 18.6 nM. For the same compound, the Ki in series [3] (setting [4]) came to 23.4 nM.
The compound `Cc1cc2occc2c(N2CCN(CC[C@H]3CC[C@H](NC(=O)C4CCOCC4)CC3)CC2)n1` [Example 97, trans-Tetrahydro-pyran-4-carboxylic acid (4-{2-[4-(6-methyl-furo[3,2-c]pyridin-4-yl)-piperazin-1-yl]-ethyl}-cyclohexyl)-amide] registered a melting point of 219 °C. Moreover, in series [1], the Ki is 275 nM. Also, in series [2], the Ki was 14.2 nM. Further, in series [3], the Ki is 25.5 nM.
With `C/C=C/CC(=O)N[C@H]1CC[C@H](CCN2CCN(c3nccc4c3CCO4)CC2)CC1` [Example 81, (E)-Pent-3-enoic acid trans-(4-{2-[4-(2,3-dihydro-furo[3,2-c]pyridin-4-yl)-piperazin-1-yl]-ethyl}-cyclohexyl)-amide], the melting point is 175.5 °C. Also, the Ki in series [1] was determined as 945 nM. Further, in series [2], the Ki amounted to 12.9 nM. Besides, in series [3] (setting [4]), the Ki came out at 22.8 nM.

One may read the Ki as a dissociation constant, usually derived from enzyme kinetics or from competition with a known ligand. One may read the melting point as the temperature of the solid-liquid transition.
